Patent publication US10501445B2, “Quinoxalinones and dihydroquinoxalinones as respiratory syncytial virus antiviral agents” (JANSSEN SCIENCES IRELAND UC, priority 2013, dated 2019)

Tests used:
rgRSV224 virus = test: Antiviral activity: rgRSV224 (GFP-expressing RSV) replication in HeLa cells, GFP expression readout; format: cell-based; conditions: human respiratory syncytial virus, 72 h, read-out: WT activity EC50
Method: (§1) Black 96-well clear-bottom microtiter plates (Corning, Amsterdam, The Netherlands) were filled in duplicate using a customized robot system with serial 4-fold dilutions of compound in a final volume of 50 μl culture medium [RPMI medium without phenol red, 10% FBS, 0.04% gentamycin (50 mg/ml) and 0.5% DMSO]. Then, 100 μl of a HeLa cell suspension (5×10^4 cells/ml) in culture medium was added to each well followed by the addition of 50 μl rgRSV224 (MOI=0.02) virus in culture medium using a multidrop dispenser (Thermo Scientific, Erembodegem, Belgium). rgRSV224 virus is an engineered virus that includes an additional GFP gene (Hallak et al, 2000) and was in-licensed from the NIH (Bethesda, Md., USA). Medium, virus- and mock-infected controls were included in each test. Cells were incubated at 37° C. in a 5% CO2 atmosphere. Three days post-virus exposure, viral replication was quantified by measuring GFP expression in the cells by a MSM laser microscope (Tibotec, Beerse, Belgium). The EC50 was defined as the 50% inhibitory concentration for GFP expression. In parallel, compounds were incubated for three days in a set of white 96-well microtitier plates (Corning) and the cytotoxicity of compounds in HeLa cells was determined by measuring the ATP content of the cells using the ATPlite kit (PerkinElmer, Zaventem, Belgium) according to the manufacturer's instructions. The CC50 was defined as the 50% concentration for cytotoxicity.

in vitro = format: cell-based; conditions: human
Method: as §1

Row | SMILES | EC50 (rgRSV224 virus) | CC50 at 3 days (in vitro)
1 | CC(C)CCn1c(CN2C(=O)CN(C3CC3)c3ccncc32)nc2nc(Cl)ccc21 [Compound P22, 4-((5-chloro-1-isopentyl-1H-imidazo[4,5-b]pyridin-2-yl)methyl)-1-cyclopropyl-1,2-dihydropyrido[3,4-b]pyrazin-3(4H)-one] | 0.12 µM | 60.7 µM
2 | CS(=O)(=O)CCCn1c(CN2C(=O)CN(C3CC3)c3ccncc32)nc2cc(Cl)ccc21 [Compound P26, 4-((5-chloro-1-(3-(methylsulfonyl)propyl)-1H-benzo[d]imidazol-2-yl)-methyl)-1-cyclopropyl-1,2-dihydropyrido[3,4-b]pyrazin-3(4H)-one] | 0.015 µM | > 100 µM
3 | CS(=O)(=O)CCCn1c(Cn2c(=O)cnc3cc(F)ccc32)cc2cc(Br)ccc21 [Compound P29, 1-((5-bromo-1-(3-(methylsulfonyl)propyl)-1H-indol-2-yl)methyl)-6-fluoroquinoxalin-2(1H)-one] | 0.055 µM | 9.73 µM
4 | CS(=O)(=O)CCCn1c(Cn2c(=O)cnc3ccc(F)cc32)cc2cc(Br)ccc21 [Compound P28, 1-((5-bromo-1-(3-(methylsulfonyl)propyl)-1H-indol-2-yl)methyl)-7-fluoroquinoxalin-2(1H)-one] | 0.018 µM | –
5 | CS(=O)(=O)CCCn1c(Cn2c(=O)cnc3cc(F)ccc32)nc2cc(Br)ccc21 [Compound P25, 1-((5-bromo-1-(3-(methylsulfonyl)propyl)-1H-benzo[d]imidazol-2-yl)methyl)-6-fluoroquinoxalin-2(1H)-one] | 0.0065 µM | 64 µM
6 | CC(C)CCn1c(Cn2c(=O)cnc3ccc(-c4ccncc4)cc32)nc2nc(Cl)ccc21 [Compound P14, 1-((5-chloro-1-isopentyl-1H-imidazo[4,5-b]pyridin-2-yl)methyl)-7-(pyridin-4-yl)quinoxalin-2(1H)-one] | 0.061 µM | 14.7 µM
7 | O=c1cnc2ccc(-c3ccncc3)cc2n1Cc1nc2cc(F)ccc2n1CCCCF [Compound P8, 1-((5-fluoro-1-(4-fluorobutyl)-1H-benzo[d]imidazol-2-yl)methyl)-7-(pyridin-4-yl)quinoxalin-2(1H)-one] | 2.69 µM | 86.8 µM
8 | O=c1cnc2cc(F)ccc2n1Cc1nc2cc(F)ccc2n1CCCCF [Compound P10, 6-fluoro-1-((5-fluoro-1-(4-fluorobutyl)-1H-benzo[d]imidazol-2-yl)methyl)quinoxalin-2(1H)-one] | 1.04 µM | > 100 µM
9 | O=c1cnc2ccc(F)cc2n1Cc1nc2cc(F)ccc2n1CCCCF [Compound P9, 7-fluoro-1-((5-fluoro-1-(4-fluorobutyl)-1H-benzo[d]imidazol-2-yl)methyl)quinoxalin-2(1H)-one] | 0.27 µM | > 100 µM
10 | Cc1nc(C)c(-c2ccc3ncc(=O)n(Cc4nc5cc(F)ccc5n4CCCCF)c3c2)s1 [Compound P4, 7-(2,4-dimethylthiazol-5-yl)-1-((5-fluoro-1-(4-fluorobutyl)-1H-benzo[d]imidazol-2-yl)methyl)quinoxalin-2(1H)-one] | 4.78 µM | 31.1 µM
11 | CC(C)CCn1c(Cn2c(=O)cnc3cc(F)ccc32)nc2nc(Cl)ccc21 [Compound P20, 1-((5-chloro-1-isopentyl-1H-imidazo[4,5-b]pyridin-2-yl)methyl)-6-fluoroquinoxalin-2(1H)-one] | 0.032 µM | > 100 µM
12 | CC(C)CCn1c(Cn2c(=O)cnc3ccc(F)cc32)nc2nc(Cl)ccc21 [Compound P19, 1-((5-chloro-1-isopentyl-1H-imidazo[4,5-b]pyridin-2-yl)methyl)-7-fluoroquinoxalin-2(1H)-one] | 0.042 µM | > 100 µM
13 | O=c1cnc2cnccc2n1Cc1nc2cc(F)ccc2n1CCCCF [Compound P11, 1-((5-fluoro-1-(4-fluorobutyl)-1H-benzo[d]imidazol-2-yl)methyl)pyrido[3,4-b]pyrazin-2(1H)-one] | 7.21 µM | > 100 µM
14 | CC(C)CCn1c(Cn2c(=O)cnc3ccc(-c4ccsc4)cc32)nc2nc(Cl)ccc21 [Compound P15, 1-((5-chloro-1-isopentyl-1H-imidazo[4,5-b]pyridin-2-yl)methyl)-7-(thiophen-3-yl)-quinoxalin-2(1H)-one] | 0.34 µM | 27.6 µM
15 | CC(C)CCn1c(Cn2c(=O)cnc3ccc(-c4cncnc4)cc32)nc2nc(Cl)ccc21 [Compound P17, 1-((5-chloro-1-isopentyl-1H-imidazo[4,5-b]pyridin-2-yl)methyl)-7-(pyrimidin-5-yl)quinoxalin-2(1H)-one] | 0.48 µM | > 100 µM
16 | O=c1cnc2ccc(-c3ccccc3)cc2n1Cc1nc2cc(F)ccc2n1CCCCF [Compound P6, 1-((5-fluoro-1-(4-fluorobutyl)-1H-benzo[d]imidazol-2-yl)methyl)-7-phenylquinoxalin-2(1H)-one] | 3.94 µM | 42.8 µM
17 | CC(C)CCn1c(Cn2c(=O)cnc3cnccc32)nc2nc(Cl)ccc21 [Compound P21, 1-((5-chloro-1-isopentyl-1H-imidazo[4,5-b]pyridin-2-yl)methyl)pyrido[4,3-b]pyrazin-2(1H)-one] | > 10.1 µM | > 100 µM
18 | Cn1nc(C(F)(F)F)cc1-c1ccc2ncc(=O)n(Cc3nc4cc(F)ccc4n3CCCCF)c2c1 [Compound P5, 1-((5-fluoro-1-(4-fluorobutyl)-1H-benzo[d]imidazol-2-yl)methyl)-7-(1-methyl-3-(trifluoromethyl)-1H-pyrazol-5-yl)quinoxalin-2(1H)-one] | 4.89 µM | 53.3 µM
19 | O=c1cnc2ccc(-c3ccc(C(F)(F)F)cc3)cc2n1Cc1nc2cc(F)ccc2n1CCCCF [Compound P3, 1-((5-fluoro-1-(4-fluorobutyl)-1H-benzo[d]imidazol-2-yl)methyl)-7-(4-(trifluoromethyl)phenyl)quinoxalin-2(1H)-one] | > 10.1 µM | 42.4 µM
20 | CC(C)CCn1c(Cn2c(=O)cnc3ccc(-c4cccn4C(=O)OC(C)(C)C)cc32)nc2nc(Cl)ccc21 [Compound P16, tert-butyl 2-(4-((5-chloro-1-isopentyl-1H-imidazo[4,5-b]pyridin-2-yl)methyl)-3-oxo-3,4-dihydroquinoxalin-6-yl)-1H-pyrrole-1-carboxylate] | 0.51 µM | 42.5 µM
21 | CS(=O)(=O)CCCn1c(Cn2c(=O)cnc3ccc(F)cc32)nc2cc(Br)ccc21 [Compound P24, 1-((5-bromo-1-(3-(methylsulfonyl)propyl)-1H-benzo[d]imidazol-2-yl)methyl)-7-fluoroquinoxalin-2(1H)-one] | 0.004 µM | 78.5 µM
22 | O=C1CN(C2CC2)c2ccncc2N1Cc1nc2cc(Cl)ccc2n1CCCC(F)(F)F [Compound P27, 4-((5-chloro-1-(4,4,4-trifluorobutyl)-1H-benzo[d]imidazol-2-yl)methyl)-1-cyclopropyl-1,2-dihydropyrido[3,4-b]pyrazin-3(4H)-one] | 0.029 µM | > 100 µM
23 | CN(C)Cc1cccc(-c2ccc3ncc(=O)n(Cc4nc5cc(F)ccc5n4CCCCF)c3c2)c1 [Compound P7, 7-(3-((dimethylamino)methyl)phenyl)-1-((5-fluoro-1-(4-fluorobutyl)-1H-benzo[d]imidazol-2-yl)methyl)quinoxalin-2(1H)-one] | 0.099 µM | 17.6 µM
24 | O=c1cnc2ccc(Br)cc2n1Cc1nc2cc(F)ccc2n1CCCCF [Compound P1, 7-bromo-1-{[5-fluoro-1-(4-fluorobutyl)-1H-benzimidazol-2-yl]methyl}quinoxalin-2(1H)-one] | 0.071 µM | 87 µM
25 | CS(=O)(=O)CCCn1c(CN2C(=O)CN(C3CC3)c3ccncc32)nc2cc(Br)ccc21 [Compound P23, 4-((5-bromo-1-(3-(methylsulfonyl)propyl)-1H-benzo[d]imidazol-2-yl)methyl)-1-cyclopropyl-1,2-dihydropyrido[3,4-b]pyrazin-3(4H)-one] | 0.0015 µM | 71.3 µM
26 | O=C1CN(C2CC2)c2ccncc2N1Cc1nc2cc(F)ccc2n1CCCCF [Compound P12, 1-cyclopropyl-4-((5-fluoro-1-(4-fluorobutyl)-1H-benzo[d]imidazol-2-yl)methyl)-1,2-dihydropyrido[3,4-b]pyrazin-3(4H)-one] | 0.011 µM | 50.1 µM
27 | CC(C)CCn1c(Cn2c(=O)cnc3ccc(-c4ccc(F)cc4)cc32)nc2nc(Cl)ccc21 [Compound P18, 1-((5-chloro-1-isopentyl-1H-imidazo[4,5-b]pyridin-2-yl)methyl)-7-(4-fluorophenyl)quinoxalin-2(1H)-one] | 3.33 µM | 51.5 µM
28 | O=c1cnc2ccc(-c3ccc(CCN4CCOCC4)cc3)cc2n1Cc1nc2cc(F)ccc2n1CCCCF [Compound P2, 1-((5-fluoro-1-(4-fluorobutyl)-1H-benzo[d]imidazol-2-yl)methyl)-7-(4-(2-morpholinoethyl)phenyl)quinoxalin-2(1H)-one] | > 10.1 µM | 94 µM
29 | CC(C)CCn1c(Cn2c(=O)cnc3ccc(Br)cc32)nc2nc(Cl)ccc21 [Compound P13, 7-bromo-1-((5-chloro-1-isopentyl-1H-imidazo[4,5-b]pyridin-2-yl)methyl) quinoxalin-2(1H)-one] | 0.004 µM | 46.5 µM
